Reference: ChEMBL document CHEMBL1141054, “Analogs of a potent maxi-K potassium channel opener with an improved inhibitory profile toward cytochrome P450 isozymes” (Bioorg Med Chem Lett, 2005)
pIC50: −log10 of the molar value. Each block holds one molecule with its values, some of them ahead of it.

Assays:
[1] = Percent increase of potassium current mediated by large conductance calcium-activated channel expressed in Xenopus laevis oocytes at 20 uM; assay type: functional, Homo sapiens, Oocyte
Cytochrome P450 1A2 = biological target: T1, Cytochrome P450 1A2 (Homo sapiens, UniProt P05177); assay: Inhibition against Cytochrome P450 1A2 prepared from baculovirus-infected insect cells using 3-cyano-7-ethoxycoumarin; assay type: ADME
T1 sequence (P05177 whole entry): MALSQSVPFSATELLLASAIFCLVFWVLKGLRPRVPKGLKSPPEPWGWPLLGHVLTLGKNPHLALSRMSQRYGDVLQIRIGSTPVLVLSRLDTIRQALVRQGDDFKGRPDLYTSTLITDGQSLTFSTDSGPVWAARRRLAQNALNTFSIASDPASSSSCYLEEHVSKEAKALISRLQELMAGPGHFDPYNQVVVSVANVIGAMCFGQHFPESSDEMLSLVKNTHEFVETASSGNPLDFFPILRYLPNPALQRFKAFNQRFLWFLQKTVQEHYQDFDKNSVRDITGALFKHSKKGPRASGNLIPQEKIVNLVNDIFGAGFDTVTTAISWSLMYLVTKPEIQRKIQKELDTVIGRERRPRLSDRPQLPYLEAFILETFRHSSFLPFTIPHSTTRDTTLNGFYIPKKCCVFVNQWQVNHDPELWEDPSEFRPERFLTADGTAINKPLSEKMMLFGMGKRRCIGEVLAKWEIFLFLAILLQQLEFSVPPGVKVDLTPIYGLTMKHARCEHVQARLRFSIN

Cytochrome P450 2C9 [2] = biological target: T2, Cytochrome P450 2C9 (Homo sapiens, UniProt P11712); assay: Inhibition against Cytochrome P450 2C9 prepared from baculovirus-infected insect cells using 7-methoxy-4-trifluoromethylcoumarin; assay type: ADME
Cytochrome P450 2C19 = Cytochrome P450 2C19 (Homo sapiens, UniProt P33261); assay: Inhibition against Cytochrome P450 2C19 prepared from baculovirus-infected insect cells using 3-cyano-7-ethoxycoumarin; assay type: ADME
Cytochrome P450 2D6 [3] = biological target: T3, Cytochrome P450 2D6 (Homo sapiens, UniProt P10635); assay: Inhibition against Cytochrome P450 2D6 prepared from baculovirus-infected insect cells using 3-[2-(N,N-diethyl-N-methylamino)ethyl]-7- methoxy-4-methylcoumarin; assay type: ADME
Cytochrome P450 3A4 [4] = biological target: T4, Cytochrome P450 3A4 (Homo sapiens, UniProt P08684); assay: Inhibition against Cytochrome P450 3A4 prepared from baculovirus-infected insect cells using 7-benzyloxy- 4-trifluoromethylcoumarin; assay type: ADME
Cytochrome P450 3A4 [5] = biological target: T4, Cytochrome P450 3A4; assay: Inhibition against Cytochrome P450 3A4 prepared from baculovirus-infected insect cells using resorufin benzyl ether; assay type: ADME
Cytochrome P450 2C9 [6] = biological target: T2, Cytochrome P450 2C9; assay: Inhibitory activity against Cytochrome P450 2C9; assay type: ADME
Cytochrome P450 3A4 [7] = biological target: T4, Cytochrome P450 3A4; assay: Inhibition against Cytochrome P450 3A4 prepared from baculovirus-infected insect cells using resorufin benzylether; assay type: ADME
Cytochrome P450 3A4 [8] = biological target: T4, Cytochrome P450 3A4; assay: Inhibition against Cytochrome P450 3A4 prepared from baculovirus-infected insect cells using 7-benzyloxy-4-trifluoromethylcoumarin; assay type: ADME
Cytochrome P450 2C9 [9] = biological target: T2, Cytochrome P450 2C9; assay: Inhibition against Cytochrome P450 2C9; assay type: ADME
Cytochrome P450 2D6 [10] = biological target: T3, Cytochrome P450 2D6; assay: Inhibition against Cytochrome P450 2D6 prepared from baculovirus-infected insect cells using 3-[2-(N,N-diethyl-N-methylamino)ethyl]-7-methoxy-4-methylcoumarin; assay type: ADME

T4 sequence (P08684 whole entry): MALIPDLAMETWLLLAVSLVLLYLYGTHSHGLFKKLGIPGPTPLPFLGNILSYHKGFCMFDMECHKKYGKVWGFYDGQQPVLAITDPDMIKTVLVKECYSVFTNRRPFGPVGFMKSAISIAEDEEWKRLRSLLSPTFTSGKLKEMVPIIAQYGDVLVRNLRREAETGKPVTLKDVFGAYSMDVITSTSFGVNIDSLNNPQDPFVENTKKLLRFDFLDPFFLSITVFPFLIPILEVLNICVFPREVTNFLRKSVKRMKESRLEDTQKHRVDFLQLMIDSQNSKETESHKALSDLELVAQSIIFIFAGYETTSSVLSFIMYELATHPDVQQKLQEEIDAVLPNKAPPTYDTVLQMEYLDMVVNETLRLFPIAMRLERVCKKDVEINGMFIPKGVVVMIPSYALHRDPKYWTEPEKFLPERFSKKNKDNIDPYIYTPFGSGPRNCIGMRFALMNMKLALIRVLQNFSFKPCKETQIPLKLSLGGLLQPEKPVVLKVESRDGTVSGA
T3 sequence (P10635 whole entry): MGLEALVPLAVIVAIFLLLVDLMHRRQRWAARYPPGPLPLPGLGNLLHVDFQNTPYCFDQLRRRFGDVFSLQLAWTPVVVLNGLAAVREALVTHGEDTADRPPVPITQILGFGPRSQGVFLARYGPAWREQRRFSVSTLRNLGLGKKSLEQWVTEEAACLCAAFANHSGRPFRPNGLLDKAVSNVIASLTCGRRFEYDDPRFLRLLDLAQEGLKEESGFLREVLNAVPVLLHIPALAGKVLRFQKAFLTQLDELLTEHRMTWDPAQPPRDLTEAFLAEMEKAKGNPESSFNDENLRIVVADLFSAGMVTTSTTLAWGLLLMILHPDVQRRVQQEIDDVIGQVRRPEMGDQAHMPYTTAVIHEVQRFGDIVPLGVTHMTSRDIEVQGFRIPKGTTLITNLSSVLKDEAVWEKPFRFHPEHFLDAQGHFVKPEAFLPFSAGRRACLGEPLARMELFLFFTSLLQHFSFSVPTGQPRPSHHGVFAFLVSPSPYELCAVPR
T2 sequence (P11712 whole entry): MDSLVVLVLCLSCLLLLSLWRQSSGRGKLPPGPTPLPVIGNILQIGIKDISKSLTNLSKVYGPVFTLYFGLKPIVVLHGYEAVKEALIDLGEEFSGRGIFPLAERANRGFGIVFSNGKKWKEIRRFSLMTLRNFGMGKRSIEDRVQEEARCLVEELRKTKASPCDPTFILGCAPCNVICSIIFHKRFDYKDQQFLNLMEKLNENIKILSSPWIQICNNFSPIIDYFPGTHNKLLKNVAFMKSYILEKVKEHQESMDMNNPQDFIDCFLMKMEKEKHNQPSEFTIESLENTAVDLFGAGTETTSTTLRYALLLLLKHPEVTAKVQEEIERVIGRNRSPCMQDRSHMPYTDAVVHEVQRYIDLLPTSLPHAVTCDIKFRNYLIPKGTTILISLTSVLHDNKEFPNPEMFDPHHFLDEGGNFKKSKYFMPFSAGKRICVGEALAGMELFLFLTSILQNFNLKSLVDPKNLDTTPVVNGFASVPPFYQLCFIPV
Chain of Cytochrome P450 2C19 (P33261 whole entry): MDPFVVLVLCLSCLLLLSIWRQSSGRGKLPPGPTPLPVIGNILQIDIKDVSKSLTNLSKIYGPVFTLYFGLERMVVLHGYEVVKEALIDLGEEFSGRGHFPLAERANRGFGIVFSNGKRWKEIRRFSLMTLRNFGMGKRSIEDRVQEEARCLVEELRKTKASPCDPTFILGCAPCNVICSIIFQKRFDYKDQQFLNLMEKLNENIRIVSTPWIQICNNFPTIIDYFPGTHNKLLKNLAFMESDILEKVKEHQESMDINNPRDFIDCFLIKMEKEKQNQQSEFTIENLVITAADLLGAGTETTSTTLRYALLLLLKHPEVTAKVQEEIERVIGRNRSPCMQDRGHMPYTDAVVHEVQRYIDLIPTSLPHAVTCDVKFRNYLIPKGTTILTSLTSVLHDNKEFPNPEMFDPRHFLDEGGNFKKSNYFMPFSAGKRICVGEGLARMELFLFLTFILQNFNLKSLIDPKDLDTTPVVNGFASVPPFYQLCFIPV

Structure (SMILES): CC(=O)CC1Oc2ccc(Cl)cc2-c2c1c(=O)[nH]c1ccc(C(F)(F)F)cc21 (stereo not drawn)
pIC50 (Cytochrome P450 2C9 [6]): 4.71

Structure (SMILES): COc1ccc(Cl)cc1-c1c(CCO)c(O)nc2ccc(C(F)(F)F)cc12
pIC50 (Cytochrome P450 2C9 [6]): 5.26
Increase [1]: 211.2%

Structure (SMILES): N=C(N)COc1ccc(Cl)cc1-c1c(CCO)c(O)nc2ccc(C(F)(F)F)cc12
Increase [1]: 118.3%

Structure (SMILES): O=C1Cc2c(c3cc(C(F)(F)F)ccc3[nH]c2=O)-c2cc(Cl)ccc2O1
pIC50 (Cytochrome P450 2C9 [6]): 4.90

Structure (SMILES): N#CCOc1ccc(Cl)cc1-c1c(CCO)c(O)nc2ccc(C(F)(F)F)cc12
Increase [1]: 148.9%

Structure (SMILES): OCCc1c(O)nc2ccc(C(F)(F)F)cc2c1-c1cc(Cl)ccc1OCc1nn[nH]n1
Increase [1]: 111%

Structure (SMILES): N=C(N)Cn1c(=O)c(CCO)c(-c2cc(Cl)ccc2O)c2cc(C(F)(F)F)ccc21
Increase [1]: 105.8%

Structure (SMILES): O=c1[nH]c2ccccc2c(Cc2ccccc2)c1-[n+]1ccccc1
pIC50 (Cytochrome P450 2C9 [6]): < 4.00

Structure (SMILES): CCN(CC)C[C@@H](O)CSc1c(-c2cc(Cl)ccc2O)c2cc(C(F)(F)F)ccc2[nH]c1=O
pIC50 (Cytochrome P450 2C9 [6]): 4.30

Structure (SMILES): CCN(CC)C[C@H](O)CSc1c(-c2cc(Cl)ccc2O)c2cc(C(F)(F)F)ccc2[nH]c1=O
pIC50 (Cytochrome P450 2C9 [6]): 4.42

Structure (SMILES): NC(=O)COc1ccc(Cl)cc1-c1c(CCO)c(O)nc2ccc(C(F)(F)F)cc12
Increase [1]: 124%

Continued, in another order:

pIC50 (Cytochrome P450 1A2): < 4.00
pIC50 (Cytochrome P450 2C9 [2]): 4.72
pIC50 (Cytochrome P450 2C19): 4.92
pIC50 (Cytochrome P450 2D6 [3]): < 4.00
pIC50 (Cytochrome P450 3A4 [4]): 4.52
pIC50 (Cytochrome P450 3A4 [5]): 4.89
Structure (SMILES): O=c1c(CCO)c(-c2cc(Cl)ccc2O)c2cc(C(F)(F)F)ccc2n1Cc1nn[nH]n1
Increase [1]: 205.8%

pIC50 (Cytochrome P450 2C9 [6]): 5.96
Structure (SMILES): Cn1c(=O)c(CCO)c(-c2cc(Cl)ccc2O)c2cc(C(F)(F)F)ccc21
Increase [1]: 296.1%

pIC50 (Cytochrome P450 1A2): < 4.40
pIC50 (Cytochrome P450 2C9 [2]): 5.41
pIC50 (Cytochrome P450 2C19): 4.62
pIC50 (Cytochrome P450 2D6 [3]): 4.64
pIC50 (Cytochrome P450 3A4 [4]): 4.89
pIC50 (Cytochrome P450 3A4 [5]): 4.74
Structure (SMILES): N#CCn1c(=O)c(CCO)c(-c2cc(Cl)ccc2O)c2cc(C(F)(F)F)ccc21
Increase [1]: 236.6%

pIC50 (Cytochrome P450 3A4 [7]): < 4.00
pIC50 (Cytochrome P450 3A4 [8]): 5.09
pIC50 (Cytochrome P450 1A2): 4.52
pIC50 (Cytochrome P450 2C9 [2]): 5.77
pIC50 (Cytochrome P450 2C19): 5.28
pIC50 (Cytochrome P450 2C9 [9]): 5.77
pIC50 (Cytochrome P450 2D6 [10]): 4.46
Structure (SMILES): O=c1[nH]c2ccc(C(F)(F)F)cc2c(-c2cc(Cl)ccc2O)c1CCO [BMS-223131]
Increase [1]: 252.6%

pIC50 (Cytochrome P450 1A2): < 4.00
pIC50 (Cytochrome P450 2C9 [2]): 4.80
pIC50 (Cytochrome P450 2C19): 5.09
pIC50 (Cytochrome P450 2D6 [3]): < 4.00
pIC50 (Cytochrome P450 3A4 [4]): 4.59
pIC50 (Cytochrome P450 3A4 [5]): 4.30
Structure (SMILES): NC(=O)Cn1c(=O)c(CCO)c(-c2cc(Cl)ccc2O)c2cc(C(F)(F)F)ccc21
Increase [1]: 262.5%
